Laboratory results as given in patent US6908937B2, “Heterocyclic fluoroalkenyl thioethers (II)” (Bayer Cropscience AG, priority 2000, dated 2005).

Assays:
[1] = test system: caterpillars of the army worm (Spodoptera frugiperda); test: Spodoptera frugiperda test; type: in vivo; conditions: 1000 ppm, after 7 days, cabbage leaves dipped
Text: Spodoptera frugiperda Test

[2] = logP determination by HPLC (EEC Directive 79/831 Annex V.A8); type: physicochemical
[3] = test system: Boophilus microplus resistant (SP-resistant Parkhurst strain); test: Test with Boophilus microplus resistant (SP-resistant Parkhurst strain/II), injection; type: in vivo; conditions: injected into the abdomen, after 7 days; for kill (no oviposition of fertile eggs): 20 μg per animal
Method: Test with Boophilus microplus Resistant (SP-resistant Parkhurst Strain/II)
20 mg of active compound are dissolved in 1 ml of dimethyl sulphoxide, more dilute concentrations are prepared by dilution in the same solvent.
The test is carried out in 5 replications. 1 μl of the solutions is injected into the abdomen, and the animals are transferred into dishes and kept in a climatized room. After 7 days, the activity is checked by examination for oviposition of fertile eggs. Eggs whose fertility is not visible from the outside are stored in glass tubes in a controlled-environment cabinet until the larvae have hatched. An activity of 100% means that no tick has produced any fertile eggs.

[4] = test system: Trichinella spiralis larvae; test: Trichinella spiralis in-vitro; set-up: key: 0 means no activity; 1 means weak activity; 2 means good activity; 3 means full activity; conditions: 100 ppm, 5 days at 19° C.
Method: Trichinella spiralis In-vitro
Trichinella spiralis larvae are isolated from skeletal muscles and subcutaneous muscles of SPF/CFW1 mice and collected in aqueous 0.9% NaCl containing 20 μg of sisomycin/ml. Per determination, 20 larvae are incubated in 2 ml of a nutrient solution (20 g of Bacto Casitone/l, 10 g of yeast extract/l, 5 g of glucose/l, 0.8 g of KH2PO4/l, 0.8 g of K2HPO4; […] of sisomycin/ml and 1 μg of Canesten/ml; pH=7.2).
The incubation and the determination have been described in Martin et al., Pesticide Science (1996) 48, 343-349. 10 mg of the test compound are dissolved in 0.5 ml of the stated solvent, and such an amount of the resulting solution is added to the incubation medium that the desired concentration is reached. The controls contain only the solvent.
After an incubation time of 5 days at a temperature of 19° C., the experiment is terminated. The anthelmintic activity of a substance is categorized into 4 stages. 0 means no activity, 1 means weak activity, 2 means good activity and 3 means full activity (<50%, 50-75%, >75%, 100% of the larvae dead).

[5] = test system: greenhouse red spider mite (Tetranychus urticae); test: Tetranychus test (OP-resistant/dip treatment); type: in vivo; conditions: 0.1%, after 7 days, bean plants dipped
Text: Tetranychus Test (OP-resistant/Dip Treatment)

[6] = test system: adults of Ctenocephalides felis; test: Test with cat fleas/oral uptake; type: in vivo; conditions: 100 ppm in citrated cattle blood, after 28 h
Method: Test with Cat Fleas/Oral Uptake
15 μl of this formulation are added to 3 ml of citrated cattle blood and stirred.
10 unfed adult fleas (Ctenocephalides felis, strain “Georgi”) are placed into a chamber (Ø 3.2 cm) whose top and bottom are closed with gauze. A metal cylinder whose underside is covered with parafilm is placed onto the chamber. […] Whereas the blood is warmed to 37° C., the temperature in the area of the flea chambers is adjusted to 25° C. Controls are mixed with the same volume of DMSO, without addition of a compound. The determinations are carried out in triplicate.
After 28 h, the mortality in % (=dead fleas) is determined.

[7] = test system: Meloidogyne incognita; test: Meloidogyne test; type: in vivo; conditions: 20 ppm, after 14 days, lettuce
Method: Containers are filled with sand, solution of active compound, Meloidogyne incognita egg/larvae suspension and lettuce seeds. The lettuce seeds germinate and the plants develop. On the roots, galls are formed.
After the desired period of time, the nematicidal action is determined in % using gall formation as a measure. 100% means that no galls were found; 0% means that the number of galls on the treated plants corresponds to that of the untreated control.

[8] = test system: peach aphid (Myzus persicae); test: Myzus test; type: in vivo; conditions: 10 ppm, after 6 days, Vicia faba seedlings dipped
[9] = test system: larvae of the mustard beetle (Phaedon cochleariae); test: Phaedon larvae test; conditions: 1000 ppm, after 7 days, cabbage leaves dipped
[10] = test system: Boophilus microplus resistant (SP-resistant Parkhurst strain); test: Test with Boophilus microplus resistant (SP-resistant Parkhurst strain/I), dip; type: in vivo; conditions: 100 ppm, adult females dipped for 1 minute
Method: Test with Boophilus microplus Resistant (SP-resistant Parkhurst Strain/I)
(§1) 20 mg of active compound are dissolved in 1 ml of dimethyl sulphoxide, more dilute concentrations are prepared by dilution with distilled water.
10 adult Boophilus microplus res. are dipped for 1 minute into the preparation of active compound to be tested. The animals are transferred into plastic beakers and kept in a climatized room, and the kill rate is then determined.

[11] = test system: Blatella germanica or Periplaneta americana; test: Cockroach test; type: in vivo; conditions: 100 ppm, dipped for 1 minute, after 7 days
Method: 20 mg of active compound are dissolved in 1 ml of dimethyl sulphoxide, more dilute concentrations are prepared by dilution with distilled H2O.
4 test animals are dipped for 1 minute into the preparation of active compound to be tested.
The test animals are transferred into plastic beakers and kept in a climatized room for 7 days, after which the kill rate is determined.

[12] = test system: Lucilia cuprina larvae; test: Blowfly larvae test/development-inhibitory action; type: in vivo; conditions: 100 ppm
Method: Blowfly Larvae Test/Development-inhibitory Action
as §1
About 20 Lucilia cuprina larvae are introduced into a test tube which contains about 1 cm^3 of horse meat and 0.5 ml of the preparation of active compound to be tested. After 24 hours and 48 hours, the efficacy of the preparation of active compound is determined. The test tubes are transferred into a beaker whose bottom is covered with sand. After a further 2 days, the test tubes are removed and the pupae are counted.
The efficacy of the preparation of active compound is assessed by the number of flies that have hatched after 1.5 times the period of development of an untreated control. 100% means that no flies have hatched; 0% means that all flies have hatched normally.

[13] = pH2, HPLC gradient method, acetonitrile/0.1% aqueous phosphoric acid, Table 1

Question: With `FC(F)=C(F)CCCCSc1nnc(-c2ccc(C(F)(F)F)cc2)o1` [Example 1, 2-(6,6,5-trifluorohex-5-enylthio)-5-(4-trifluoromethyl-phenyl)-1,3,4-oxadiazole] as the compound, how does the kill [1] read?
Answer: 100%

Question: And the melting point?
Answer: 40 °C

Question: Which “logP (pH2)” value [2, 13] does the source give for `FC(F)=CCCCCSc1nnc(-c2ccc(C(F)(F)F)cc2)o1` [Example 2] here?
Answer: 4.77

Question: What about the “kill (no oviposition of fertile eggs)” value [3] of the same compound?
Answer: 100%

Question: And the “anthelmintic activity class (larvae dead)” value (from here on “anthelmintic activity class”) [4]?
Answer: no activity

Question: What about the kill [5] of the same compound?
Answer: 98%

Question: What about the “kill (mortality)” value [6] of the same compound?
Answer: 93%

Question: What about the “nematicidal action (gall formation)” value [7] of the same compound?
Answer: 100%

Question: What about the kill [8] of the same compound?
Answer: 95%

Question: And the kill [9]?
Answer: 100%

Question: For `CSc1nnc(SCCCCC(F)=C(F)F)s1` [Example 5], which “logP (pH2)” value ([2]; pH 2) is on record?
Answer: 3.69

Question: And the “kill (no oviposition of fertile eggs)” value [3]?
Answer: 100%

Question: And the “nematicidal action (gall formation)” value [7]?
Answer: 100%

Question: Which “logP (pH2)” value ([2]; pH 2) does the source give for `CSc1nnc(SCCCCC=C(F)F)s1` [Example 6] here?
Answer: 3.79

Question: What about the “activity (no oviposition of fertile eggs)” value ([3]; 0.8 μg per animal) of the same compound?
Answer: 100%

Question: And the “activity (no oviposition of fertile eggs)” value ([3]; 4 μg per animal)?
Answer: 100%

Question: What about the “kill (no oviposition of fertile eggs)” value [3] of the same compound?
Answer: 100%

Question: What about the kill [5] of the same compound?
Answer: 98%

Question: What about the kill [10] of the same compound?
Answer: 100%

Question: And the “kill (mortality)” value [6]?
Answer: 81%

Question: What about the kill [8] of the same compound?
Answer: 95%

Question: And the kill [9]?
Answer: 100%

Question: And the kill [11]?
Answer: 75%

Question: With `C[S+]([O-])c1nnc(SCCCCC(F)=C(F)F)s1` (stereo not drawn) [Example 9] as the compound, how does the “logP (pH2)” value ([2]; pH 2) read?
Answer: 2.46

Question: Which “logP (pH2)” value [2, 13] does the source give for `FC(F)=CCCCCSc1nnc(C(F)(F)F)s1` [Example 10] here?
Answer: 4.32

Question: What about the kill [1] of the same compound?
Answer: 100%

Question: What about the “activity (no oviposition of fertile eggs)” value ([3]; 0.8 μg per animal) of the same compound?
Answer: 100%

Question: What about the “activity (no oviposition of fertile eggs)” value ([3]; 4 μg per animal) of the same compound?
Answer: 100%

Question: What about the “kill (no oviposition of fertile eggs)” value [3] of the same compound?
Answer: 100%

Question: What about the “anthelmintic activity class” value [4] of the same compound?
Answer: no activity

Question: What about the kill [10] of the same compound?
Answer: 100%

Question: And the “kill (mortality)” value [6]?
Answer: 87%

Question: What about the kill [8] of the same compound?
Answer: 100%

Question: What about the kill [11] of the same compound?
Answer: 100%

Question: Which “logP (pH2)” value [2, 13] does the source give for `FC(F)=C(F)CCCCSc1nnc(C(F)(F)F)s1` [Example 11] here?
Answer: 4.21

Question: What about the kill [9] of the same compound?
Answer: 100%

Question: Which results are given for `CC(C)CCSc1nnc(SCCCCC=C(F)F)s1` [Example 12]?
Answer: logP (pH2) ([2]; pH 2): 5.68; activity (no oviposition of fertile eggs) ([3]; 0.8 μg per animal): 100%; activity (no oviposition of fertile eggs) ([3]; 4 μg per animal): 100%; kill (no oviposition of fertile eggs) [3]: 100%; anthelmintic activity class (larvae dead) [4]: no activity; kill [5]: 98%; kill [10]: 100%; kill (mortality) [6]: 94%; nematicidal action (gall formation) [7]: 100%; kill (no flies hatched) [12]: 100%; kill [9]: 100%

Question: Which “logP (pH2)” value [2, 13] does the source give for `CC(C)CCSc1nnc(SCCCCC(F)=C(F)F)s1` [Example 13] here?
Answer: 5.53

Question: And the “nematicidal action (gall formation)” value [7]?
Answer: 100%

Question: For `FC(F)=C(F)CCCCSc1nnc(-c2cc(Cl)nc(Cl)c2)o1` [Example 16], which “logP (pH2)” value ([2]; pH 2) is on record?
Answer: 4.55

Question: For `FC(F)=C(F)CCCCSc1nnc(SCCCCC(F)=C(F)F)s1` [Example 21], which “logP (pH2)” value ([2]; pH 2) is on record?
Answer: 5.27

Question: What about the “activity (no oviposition of fertile eggs)” value ([3]; 0.8 μg per animal) of the same compound?
Answer: 100%

Question: And the “activity (no oviposition of fertile eggs)” value ([3]; 4 μg per animal)?
Answer: 100%

Question: And the “kill (no oviposition of fertile eggs)” value [3]?
Answer: 100%

Question: What about the “anthelmintic activity class” value [4] of the same compound?
Answer: no activity

Question: For `CCOc1nnc(SCCCCC(F)=C(F)F)s1` [Example 24], which “logP (pH2)” value ([2]; pH 2) is on record?
Answer: 3.80

Question: For `CC(C)Oc1nnc(SCCCCC(F)=C(F)F)s1` [Example 25], which “logP (pH2)” value ([2]; pH 2) is on record?
Answer: 4.24

Question: Which “logP (pH2)” value ([2]; pH 2) does the source give for `FC(F)=C(F)CCCCSc1nnc(SCCC(F)=C(F)F)s1` [Example 27] here?
Answer: 4.71

Question: For `FC(F)=CCCCCSc1nnc(SCCC(F)=C(F)F)s1` [Example 28], which “logP (pH2)” value ([2]; pH 2) is on record?
Answer: 4.84

Question: Which “logP (pH2)” value ([2]; pH 2) does the source give for `FC(F)=C(F)CCCCSc1nnc(SC(F)F)s1` [Example 29] here?
Answer: 3.82

Question: Which “logP (pH2)” value ([2]; pH 2) does the source give for `FC(F)=CCCCCSc1nnc(SC(F)F)s1` [Example 30] here?
Answer: 3.91

Question: Which “logP (pH2)” value ([2]; pH 2) does the source give for `FC(F)=CCCCCSC1=NCCCS1` [IB-1] here?
Answer: 1.48

Question: With `FC(F)=C(F)CCCCSC1=NCCCS1` [IB-2] as the compound, how does the “logP (pH2)” value ([2]; pH 2) read?
Answer: 1.51
